Marks after values point to notes of the source that are not given here.
Tests used:
[1] = parameters: method as in PMID 16731832; conditions: cited from earlier work
hGCGR HFD/STZ mice = assay: Antihyperglycemic efficacy in hGCGR HFD/STZ mice (acute, chronic, combination with des-fluoro-sitagliptin); format: in vivo, hGCGR mouse; conditions: GRA1 10 mg/kg, Des-F-sita 200 mg/kg
Source text: The present study made use of a line of hGCGR-expressing mouse (“hGCGR mouse”) generated previously by substituting the hGCGR gene for the mouse GCGR gene. These mice were crossed with C57BL/6J.ob/+ mice (Jackson Laboratories, Bar Harbor, ME) to obtain an hGCGR.ob/+ mouse line. The hGCGR.ob/+ mice were then intercrossed to obtain hGCGR.ob/ob, hGCGR.ob/+, and hGCGR.+/+ mice (with the hGCGR.ob/+ and hGCGR.+/+ mice serving as littermate controls). […] obese (DIO) hGCGR mice were generated by maintaining hGCGR mice on a high-fat diet (HFD) in which 45–60% of calories were in fat (Product S3282, Bio-Serv, Frenchtown, NJ). High-fat-diet-streptozotocin-treated (HFD/STZ) diabetic mice were generated in-house as previously described.
Acute glucose lowering was studied in non-fasted hGCGR.ob/ob mice and HFD/STZ mice administered single doses p.o. of 1, 3 and 10 mg/kg GRA1 in 10 mL/kg 0.5% aqueous methylcellulose. Animals were fasted during the interval between dosing and the final blood glucose measurement. Glucose was measured in blood from tail bleeds using a OneTouch glucometer. In the experiments with hGCGR HFD/STZ mice, treatment groups were matched with respect to body weight and blood glucose levels.
Animals were dosed chronically with GRA1 and the DPP-4 inhibitor des-fluoro-sitagliptin by administering these agents as food admixtures. The admixtures were prepared in-house and by Research Diets (New Brunswick, NJ), with drug concentrations adjusted weekly on the basis of average food consumption and animal weight to provide targeted daily doses. In the GRA1 experiments, the targeted doses were 3, 6, 10, and 30 mg/kg•day. In des-fluoro-sitagliptin experiments, the targeted dose was 200 mg/kg•day, a relatively high amount necessary because this compound has a half-life in rodents of 1–2 h.
Plasma glucagon and active GLP-1 were measured using commercial ELISA kits (Linco Research Immunoassay, St. Charles, MO). […] Plasma insulin was determined by ELISA with a commercial kit (ALPCO Diagnostics, Windham, NH). Plasma concentrations of glycated hemoglobin A1c (HbA1c) were measured using a Micromat II test kit from Bio-Rad Laboratories (Hercules, CA). Total cholesterol, low-density lipoprotein cholesterol (LDL-c) and non-LDL-c, and aspartate aminotransferase were measured using a Roche P Modular Clinical Chemistry analyzer (Indianapolis, IN).
Figure 5 GRA1 lowers glucose in hGCGR HFD/STZ mice and further enhances the efficacy of a DPP-4 inhibitor. (A) Mean (±SEM) blood glucose hGCGR HFD/STZ mice treated with a single dose of 1, 3, or 10 mg/kg GRA1. (B) Non-fasted blood glucose concentrations in hGCGR HFD/STZ mice treated for 6 weeks with 10 mg/kg·day GRA1, 200 mg/kg·day des-fluoro-sitagliptin (des-F-sita), or the two agents in combination. (Additional data from this study are in Table 4.) *p<0.05, **p<0.01, and ***p<0.001 versus HFD/STZ controls; ^#non-significant (p>0.05) versus non-STZ controls; n = 8–15 animals per group.

humans = system: humans; parameters: method as in earlier work; conditions: clinical studies in humans, MK-0893 combined with the DPP-4 inhibitor sitagliptin; cited from earlier work

SMILES: N[C@@H](CC(=O)N1CCn2c(nnc2C(F)(F)F)C1)Cc1cc(F)ccc1F [Des-F-sita, 7-[(3R)-3-amino-1-oxo-4-(2,5-difluorophenyl)butyl]-5,6,7,8-tetrahydro-3-(trifluoromethyl)-1,2,4-triazolo[4,3-α]pyrazine, reference compound]
- Half-life in rodents [1]: 1 to 2 h
- HbA1c (hGCGR HFD/STZ mice; 5 weeks of treatment, control diet 6.1±0.4): 5.0±0.4%
- 6-h fasting blood glucose (hGCGR HFD/STZ mice; 5 weeks of treatment, control diet 323±33): 283 ± 34 mg/dL
- Liver Triglyceride (hGCGR HFD/STZ mice; 6 weeks, necropsy tissue, control diet 143±10): 94±15* µg/mg
- Free fatty acid (hGCGR HFD/STZ mice; 6 weeks, terminal plasma, control diet 1.4±0.2): 1.1 ± 0.1 mM
- Active GLP-1 (hGCGR HFD/STZ mice; 6 weeks, terminal plasma, control diet 2.5±0.1): 2.9 ± 0.2 pM
- Inactive GLP-1 (hGCGR HFD/STZ mice; 6 weeks, terminal plasma, control diet 8.1±1.1): 3.2±0.2*** pM
- Plasma glucagon (hGCGR HFD/STZ mice; 6 weeks, terminal plasma, control diet 133±21): 87 ± 4 pg/mL
- Triglyceride (hGCGR HFD/STZ mice; 6 weeks, terminal plasma, control diet 184±26): 161 ± 15 mg/dL

SMILES: COc1ccc2cc(-c3cc(-c4cc(Cl)cc(Cl)c4)nn3[C@@H](C)c3ccc(C(=O)NCCC(=O)O)cc3)ccc2c1 [MK-0893, N-[(4-{(1S)-1-[3-(3,5-Dichlorophenyl)-5-(6-methoxynaphthalen-2-yl)-1H-pyrazol-1-yl]ethyl}phenyl)carbonyl]-beta-alanine]
- Glucose-lowering efficacy of combination with sitagliptin (humans): did not result in significant additional glucose-lowering efficacy

From article PMC3501516, “Anti-Diabetic Efficacy and Impact on Amino Acid Metabolism of GRA1, a Novel Small-Molecule Glucagon Receptor Antagonist” (PLoS ONE, 2012)
